Where two headings read alike, the source gives them in different places.
Experiments:
cardiomyocytes [1] = experiment: bortezomib-induced cardiotoxicity (Example 14); format: cell-based, human; conditions: 100 μM myricetin
C57BL/16 mice = experiment: acute anthracycline-induced cardiotoxicity model, echocardiography (Example 16); format: in vivo
Text: An acute anthracycline-induced cardiotoxicity model was established in 9-10 week old C57BL/16 mice obtained from The Jackson Laboratory. […] General health of the animals was monitored on a daily basis throughout the course of the study. […] Left ventricular (LV) M-mode images were obtained in the two-dimensional short axis view close to the papillary muscles. Tracings of endocardial tissue during systole and diastole were made off line.

[2] = system: Human iPSC-derived cardiomyocytes; experiment: doxorubicin-induced mitochondrial toxicity, TMRM signal, 2 days (Example 2); format: cell-based; conditions: co-treated with 1.25 μM doxorubicin and 79 μM myricetin, compared to 1.25 μM doxorubicin alone
Experimental: Following treatment, the samples were incubated with a tetramethylrhodamine methyl ester (TMRM) dye to indicate mitochondrial health, and Hoechst 33342 to identify cell nuclei. Cells were imaged using the INCell Analyzer2200.

TOPOIIβ mRNA expression = TOPOIIβ mRNA expression in cardiomyocytes; format: cell-based; conditions: for TOPOIIβ mRNA expression: compound alone, DOX at 24 and 48 hours
[3] = system: Human iPSC-derived cardiomyocytes; experiment: contractility, beat rate by Pulse video, 3 days (Example 3); format: cell-based; conditions: 72 hours; for beat rate: mock-treated 33.33
[4] = system: Doxorubicin treated human iPSC-derived cardiomyocytes; experiment: iPSC-CM protection by myricetin analogs (Table 1); format: cell-based; conditions: for EC50 / Emax: Homo sapiens; for Emax: read-out: iPSC-CM protection Max Effect (%)
[5] = system: Human iPSC-derived cardiomyocytes; experiment: DOX-induced sarcomere disruption, Cardiac Troponin T immunostaining (Example 8); format: cell-based; conditions: DOX (0.5 μM) plus MYR (100 μM), 72 hours
Experimental: DOX-induced cell death is often manifested by severity of structural disruptions of cardiomyocyte organization (e.g., sarcomere). To assess the protective effect of MYR against DOX-induced sarcomere disruption, human iPSC-derived cardiomyocytes were treated with DMSO, DOX (0.5 μM), or DOX plus MYR (100 μM). After 72 hours of treatment, cells were immunostained with antibody against Cardiac Troponin T (Abcam) to show sarcomeric organization in of the heart cells.

[6] = system: human induced pluripotent stem cell-derived cardiomyocytes (iPSC-CM)
TOPOIIα expression = experiment: TOPOIIα mRNA expression in cardiomyocytes; format: cell-based
[7] = system: Human iPSC-derived cardiomyocytes; experiment: DOX-induced DNA double strand break, γH2AX immunostaining; format: cell-based; conditions: 48 hours
[8] = system: Human stem cell derived cardiomyocytes; experiment: sunitinib-induced cell death (Example 14); format: cell-based; conditions: sunitinib (10 μM) plus MYR (1 to 100 μM), 72 hours
[9] = system: sorafenib treated cardiomyocytes; experiment: sorafenib-induced contractile dysfunction (Example 14); format: cell-based, human; conditions: 5 μM sorafenib treated cardiomyocytes
[10] = system: Human iPSC-derived cardiomyocytes; experiment: DOX-induced contractility dysfunction, Pulse video, 48 hours (Example 7); format: cell-based
[11] = system: Human iPSC-derived cardiomyocytes; experiment: cells; format: cell-based; conditions: Cardiomyocyte, 0.5 μM of Doxorubicin, 72 hours, read-out: EC50 for rescue from DOX-induced cell death
Experimental: To measure the rescue rates from the DOX-induced cell death in cardiomyocytes, the protective effect of myricetin was directly compared with that of dexraxozane (DEX; standard of care). Human iPSC-derived cardiomyocytes were treated with 0.5 μM of Doxorubicin and increasing concentrations of myricetin (MYR, circle) or dexraxozane (DEX, square). […] Cells were imaged using INCell Analyzer2200 (GE). […] (n=3).
Next, the ability of MYR to confer cardioprotection was directly compared with that of DHM as these two compounds display distinctive property in their structures and TOPOI inhibition activity. […] Human iPSC-derived cardiomyocytes were treated with 0.5 μM of Doxorubicin and increasing concentrations of myricetin (MYR, circle) or dihydromyricetin (DHM, triangle).

[12] = system: Cardiomyocytes (human iPSC-derived); experiment: doxorubicin-induced apoptosis, CellEvent dye, 3 days (Example 4); format: cell-based; conditions: Cardiomyocyte, 72 h, co-treated with 1 μM of doxorubicin, read-out: IC50 for protective effects against apoptosis
Experimental: Cardiomyocytes were prepared as described above. […] Following treatment, the samples were incubated with a CellEvent dye to indicate apoptosis-positive cells, and a second dye to identify cell nuclei.

A549 cells = experiment: doxorubicin-mediated death of lung cancer cells, CellTiter-Glo (Example 22); format: cell-based; conditions: co-treated with increasing concentrations of doxorubicin, 72 hours
Experimental: A549 cells (lung cancer) were cultured for 1 day before performing experiments. […] XLFit was used for curve fitting.

[13] = system: cardiomyocytes differentiated from induced pluripotent stem cells; experiment: doxorubicin-induced mitochondrial toxicity, TMRM-negative cells, 48 hours (Example 17); format: cell-based, human; conditions: 1 μM doxorubicin, KAE 17 μM, AMB 0.76 μM, MES 10 μM, NAC 50 μM, Dex 160 μM, VIT 115 μM
Experimental: Following treatment, the samples were incubated with a tetramethylrhodamine methyl ester (TMRM) dye to indicate mitochondrial health, and a second dye to identify cell nuclei.

TOPOIIα = molecular target: T1, TOPOIIα (Homo sapiens, UniProt P11388); experiment: kDNA decatenation assay, TOPOIIα; format: biochemical;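 further: kDNA incubated with one unit of TOPOIIα at 37 °C for 30 min, decatenated product resolved on 1% agarose gel, inhibition from relative band intensity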
T1 construct: purchased Inspiralis
T1 sequence (P11388 whole entry): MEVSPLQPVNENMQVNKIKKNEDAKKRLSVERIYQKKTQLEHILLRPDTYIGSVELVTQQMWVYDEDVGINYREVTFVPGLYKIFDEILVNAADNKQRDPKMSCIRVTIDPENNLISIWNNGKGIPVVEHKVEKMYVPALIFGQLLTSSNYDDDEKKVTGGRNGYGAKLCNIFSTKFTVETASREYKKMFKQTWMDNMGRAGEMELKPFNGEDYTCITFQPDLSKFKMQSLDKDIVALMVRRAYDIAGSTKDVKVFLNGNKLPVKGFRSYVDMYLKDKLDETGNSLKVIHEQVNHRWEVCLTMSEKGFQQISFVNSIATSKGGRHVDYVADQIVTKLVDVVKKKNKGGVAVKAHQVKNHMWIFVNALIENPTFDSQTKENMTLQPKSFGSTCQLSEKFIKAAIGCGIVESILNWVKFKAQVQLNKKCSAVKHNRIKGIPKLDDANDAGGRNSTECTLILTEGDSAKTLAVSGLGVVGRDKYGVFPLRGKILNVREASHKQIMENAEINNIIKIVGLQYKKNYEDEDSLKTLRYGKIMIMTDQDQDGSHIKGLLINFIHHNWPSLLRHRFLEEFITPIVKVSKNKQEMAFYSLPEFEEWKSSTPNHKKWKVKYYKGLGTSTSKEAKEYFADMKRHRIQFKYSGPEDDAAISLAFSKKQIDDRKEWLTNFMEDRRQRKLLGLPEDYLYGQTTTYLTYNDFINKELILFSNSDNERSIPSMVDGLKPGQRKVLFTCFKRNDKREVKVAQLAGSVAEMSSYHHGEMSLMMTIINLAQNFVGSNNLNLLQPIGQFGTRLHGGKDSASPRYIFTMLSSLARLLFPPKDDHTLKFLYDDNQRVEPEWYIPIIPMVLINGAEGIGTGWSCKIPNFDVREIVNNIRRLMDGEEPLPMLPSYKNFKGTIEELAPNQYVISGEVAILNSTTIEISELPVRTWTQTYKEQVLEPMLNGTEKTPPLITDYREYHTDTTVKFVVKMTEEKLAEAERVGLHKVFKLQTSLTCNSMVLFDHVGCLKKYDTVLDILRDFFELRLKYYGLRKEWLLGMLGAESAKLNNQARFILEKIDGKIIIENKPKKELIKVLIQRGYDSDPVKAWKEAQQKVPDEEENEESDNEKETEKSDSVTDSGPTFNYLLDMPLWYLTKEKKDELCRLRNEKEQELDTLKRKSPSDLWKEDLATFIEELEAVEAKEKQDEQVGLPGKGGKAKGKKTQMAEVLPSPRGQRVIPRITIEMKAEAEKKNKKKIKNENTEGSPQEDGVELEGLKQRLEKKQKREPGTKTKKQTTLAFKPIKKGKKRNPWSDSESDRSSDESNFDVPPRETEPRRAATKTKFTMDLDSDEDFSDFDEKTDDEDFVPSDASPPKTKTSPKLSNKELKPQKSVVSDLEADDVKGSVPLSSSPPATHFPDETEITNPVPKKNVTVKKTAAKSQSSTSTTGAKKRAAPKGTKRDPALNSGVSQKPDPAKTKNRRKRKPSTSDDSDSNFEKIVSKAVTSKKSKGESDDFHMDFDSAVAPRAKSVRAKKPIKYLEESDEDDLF

[14] = system: cardiomyocytes differentiated from induced pluripotent stem cells; experiment: long term toxicity on electrophysiology, active electrodes (Example 24); format: cell-based; conditions: various concentrations, at least 5 days
Experimental: Samples were either mock-treated with 0.1% DMSO, or treated with various concentrations of the indicated drug. Following treatment, the percentage of active electrodes in each sample was measured for at least 5 days. Percentage of active electrodes was quantified and graphed in a time course.

TOPOIIβ = molecular target: T2, TOPOIIβ (Homo sapiens, UniProt Q02880); experiment: kDNA decatenation assay, TOPOIIβ; format: biochemical;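 further: kinetoplast DNA incubated with one unit of TOPOIIβ at 37 °C for 30 min, decatenated product resolved on 1% agarose gel, inhibition scored from relative band intensity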
T2 construct: purchased Inspiralis
T2 sequence (Q02880 whole entry): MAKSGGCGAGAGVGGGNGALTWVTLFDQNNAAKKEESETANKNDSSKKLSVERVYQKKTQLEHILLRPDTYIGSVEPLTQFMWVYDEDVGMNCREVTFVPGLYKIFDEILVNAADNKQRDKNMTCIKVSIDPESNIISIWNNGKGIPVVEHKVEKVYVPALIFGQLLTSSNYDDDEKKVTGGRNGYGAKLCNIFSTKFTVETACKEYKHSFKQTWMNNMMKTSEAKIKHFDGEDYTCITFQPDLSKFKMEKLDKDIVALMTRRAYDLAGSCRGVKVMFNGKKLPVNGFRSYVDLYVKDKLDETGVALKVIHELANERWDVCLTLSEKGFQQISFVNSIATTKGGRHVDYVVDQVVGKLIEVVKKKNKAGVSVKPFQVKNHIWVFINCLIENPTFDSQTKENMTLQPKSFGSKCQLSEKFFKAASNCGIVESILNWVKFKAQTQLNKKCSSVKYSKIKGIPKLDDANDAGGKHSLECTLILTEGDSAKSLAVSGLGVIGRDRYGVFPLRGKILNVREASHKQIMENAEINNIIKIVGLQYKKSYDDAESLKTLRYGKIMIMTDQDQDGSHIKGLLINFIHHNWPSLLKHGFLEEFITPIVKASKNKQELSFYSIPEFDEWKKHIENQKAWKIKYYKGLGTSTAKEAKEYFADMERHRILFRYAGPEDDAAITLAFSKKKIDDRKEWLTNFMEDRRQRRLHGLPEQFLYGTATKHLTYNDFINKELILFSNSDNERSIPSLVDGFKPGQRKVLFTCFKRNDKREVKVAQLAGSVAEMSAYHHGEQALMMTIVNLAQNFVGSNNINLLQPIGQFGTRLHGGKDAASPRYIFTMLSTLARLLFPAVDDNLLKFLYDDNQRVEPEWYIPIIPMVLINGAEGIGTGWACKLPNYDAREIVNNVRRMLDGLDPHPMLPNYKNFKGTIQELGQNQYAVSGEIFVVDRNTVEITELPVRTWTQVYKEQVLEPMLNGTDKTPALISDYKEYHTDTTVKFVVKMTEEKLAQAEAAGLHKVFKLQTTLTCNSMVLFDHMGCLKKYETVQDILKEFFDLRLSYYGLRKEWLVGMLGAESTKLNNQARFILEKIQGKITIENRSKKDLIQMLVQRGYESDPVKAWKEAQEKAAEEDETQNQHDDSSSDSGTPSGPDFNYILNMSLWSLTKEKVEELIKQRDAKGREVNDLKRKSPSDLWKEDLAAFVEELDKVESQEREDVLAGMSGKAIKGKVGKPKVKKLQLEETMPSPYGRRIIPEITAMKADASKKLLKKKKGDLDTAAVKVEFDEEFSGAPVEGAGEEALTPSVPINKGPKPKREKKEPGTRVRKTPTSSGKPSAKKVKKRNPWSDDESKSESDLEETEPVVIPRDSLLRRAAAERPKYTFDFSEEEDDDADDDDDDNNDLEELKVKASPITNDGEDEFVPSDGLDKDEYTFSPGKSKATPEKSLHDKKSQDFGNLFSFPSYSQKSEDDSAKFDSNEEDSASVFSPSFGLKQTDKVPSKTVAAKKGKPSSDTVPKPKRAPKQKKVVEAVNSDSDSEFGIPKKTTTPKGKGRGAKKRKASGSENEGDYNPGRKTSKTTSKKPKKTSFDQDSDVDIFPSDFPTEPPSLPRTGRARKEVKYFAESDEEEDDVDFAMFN

MDA-MB-231 cells [15] = conditions: co-treated with increasing concentrations of doxorubicin, 72 hours
cardiomyocytes [16] = experiment: cytotoxicity of myricetin analogs to cardiomyocytes (Table 1, Toxicity)
[17] = system: cardiomyocytes differentiated from induced pluripotent stem cells; experiment: acute toxicity on electrophysiology, MEA beat period and field potential duration (Example 23); format: cell-based; conditions: lower drug concentration, at least 20 minutes
Experimental: Samples were either mock-treated with 0.1% DMSO, or treated with increasing concentrations of the indicated drug for at least 20 minutes. Cardiomyocytes were treated with the hERG potassium channel blocker E4031 as a control. Following treatment, the beat period and field potential duration (FPD) were measured in each sample using the MEA.

[18] = system: cardiomyocytes differentiated from induced pluripotent stem cells; experiment: doxorubicin-induced apoptosis, TUNEL dye, 48 hours (Example 18); format: cell-based, human; conditions: 1 μM doxorubicin, VIT 115 μM, Dex 160 μM, AMB 0.76 μM, NAC 50 μM, KAE 17 μM, MES 10 μM
Experimental: Following treatment, the samples were incubated with a TUNEL dye to indicate apoptosis-positive cells, and a second dye to identify cell nuclei.

[19] = system: cardiomyocytes differentiated from induced pluripotent stem cells; experiment: electrophysiological activity with doxorubicin, active electrodes (Example 20); format: cell-based, human; conditions: for average number of active electrodes: 30 hours
Experimental: Samples were either mock-treated with 0.1% DMSO, treated with 1 μM doxorubicin, or co-treated with 1 μM doxorubicin and various concentrations of vitexin (e.g., 11.6 μM, 37 μM, or 116 μM). Following treatment, the percentage of active electrodes in each sample was measured for 72 hours. Percentage of active electrodes was quantified and graphed in a time course (FIG. 28A). The average number of active electrodes per well was quantified and graphed at 30 hours after the treatment (FIG. 28B, n=6, standard deviation is shown as error bars).

[20] = system: cardiomyocytes differentiated from induced pluripotent stem cells; experiment: long-term mitochondrial health, TMRM, 7 days (Example 19); format: cell-based, human
MDA-MB-231 cells [21] = experiment: cells; conditions: Homo sapiens, MDA-MB-231, 72 h, read-out: cell viability LC50 of doxorubicin
[22] = MYR 40 mg/kg i.p. 30 minutes prior to doxorubicin 20 mg/kg, day 5
[23] = MYR 40 mg/kg i.p., 2-fold higher than doxorubicin
[24] = iPSC-CM, read-out: iPSC-CM protection EC50
[25] = Doxorubicin 20 mg/kg single intraperitoneal injection, day 5 vs baseline

O=c1c(O)c(-c2cc(O)c(O)c(O)c2)oc2cc(O)cc(O)c12 [Compound 1, 3,5,7,3′,4′,5′-hexahydroxyflavone]
rescue of bortezomib-induced cardiotoxicity (cardiomyocytes [1]): rescued
improvement of EF (C57BL/16 mice; [22]): 10%
improvement of FS (C57BL/16 mice; [22]): 7%
rescue of EF dysfunction caused by doxorubicin (C57BL/16 mice; [23]): 49%
rescue of FS dysfunction caused by doxorubicin (C57BL/16 mice; [23]): 52%
TMRM signal (mitochondrial health) [2]: greater TMRM signal
TOPOII expression (TOPOIIβ) in the presence of myricetin (TOPOIIβ mRNA expression; DOX plus myricetin): restored to a level close to normal
TOPOIIβ mRNA expression (TOPOIIβ mRNA expression): did not have any effect
beat rate ([3]; 79 μM myricetin alone): 39.33 beats per minute
beat rate ([3]; co-treated with 79 μM myricetin and 1.25 μM doxorubicin): 37.33 beats per minute
EC50 ([4]; Cardiomyocyte, approximate, read-out: EC50 for cardioprotection): 10 to 20 µM
EC50 [4, 24]: 14.5 µM
Emax ([4]; iPSC-CM): 78%
protection against DOX-induced sarcomere disruption [5]: significant protection
difference in the number of total cells, as compared to mock-treated control [6]: no significant difference
reduction the number of total cells, as compared to mock-treated control ([6]; co-treated with myricetin and 1.25 μM doxorubicin, 72 hours): 27.57%
expression of TOPOIIα (TOPOIIα expression; myricetin in the presence of DOX): further repressed
protection against DOX-induced double strand break (γH2AX-positive cells) ([7]; DOX (0.5 μM) plus 100 μM agent): significant protection
IC50 ([7]; Homo sapiens, Cardiomyocyte, read-out: IC50, concentration at which DOX-induced double strand break was reduced to 50%, 0.5 μM of doxorubicin): 5.28 µM
protection against sunitinib-induced cell death [8]: displayed protection
cardiac dysfunction corrected [9]: more than 80%
correction of DOX-induced contractile dysfunction ([10]; DOX (0.5 μM) plus MYR (100 μM), as compared to DEX (100 μM)): significantly corrected
EC50 [11]: 7.5 µM
IC50 [12]: 20.5 µM

O=c1c(O)c(-c2ccc(O)cc2)oc2cc(O)cc(O)c12 [Compound 7, 3,5,7,4′-tetrahydroxyflavone]
difference in the percentage of cell death vs doxorubicin without protective agent (A549 cells): no significant difference
decrease in mitochondrial toxicity, compared to doxorubicin without protective agent [13]: at least 60%
TOPIIα Inhibition (TOPOIIα): −
TOPOIIα inhibition, in words (TOPOIIα; decatenation assay): did not exhibit any inhibitory effect
maximum rescue rate [4]: < 50%
EC50 [4, 24]: 26 µM
Emax ([4]; iPSC-CM): 46%
cardioprotection, in words ([4]; Table 1): moderate level of cardioprotection
decrease in the number of active electrodes relative to the mock-treated sample [14]: no observable decrease
TOPIIβ Inhibition (TOPOIIβ): −
TOPOIIβ inhibition, in words (TOPOIIβ; decatenation assay): did not exhibit any inhibitory effect
difference in the percentage of cell death vs doxorubicin without protective agent (MDA-MB-231 cells [15]): no significant difference
Toxicity (cardiomyocytes [16]; * = cytotoxicity at 100 μM): −
toxic effects at concentrations less than 100 μM (cardiomyocytes [16]; Table 1): did not show toxic effects
cytotoxicity, in words (cardiomyocytes [16]; at 100 μM where stated, Table 1): without some level of cytotoxicity

O=c1cc(-c2ccc(O)cc2)oc2c([C@@H]3O[C@H](CO)[C@@H](O)[C@H](O)[C@H]3O)c(O)cc(O)c12 [vitexin]
difference in the percentage of cell death vs doxorubicin without protective agent (A549 cells): no significant difference
decrease in the number of active electrodes relative to the mock-treated sample [14]: no observable decrease
difference in beat period or field potential duration vs control samples [17]: no appreciable difference
decrease in apoptosis, compared to doxorubicin without protective agent [18]: at least 60%
decrease in the number of active electrodes ([19]; 1 μM doxorubicin and 11.6 μM vitexin, 24 hours): ~50%
decrease in the number of active electrodes ([19]; 1 μM doxorubicin and 37 μM vitexin, 24 hours): ~25%
decrease in the number of active electrodes ([19]; 1 μM doxorubicin and 116 μM vitexin, 24 hours): ~0%
average number of active electrodes ([19]; 1 μM doxorubicin and 116 μM vitexin): about 10 active electrodes
long term mitochondrial protection ([20]; doxorubicin and vitexin, compared to doxorubicin or doxorubicin and dexrazoxane): improved long term mitochondrial protection
difference in the percentage of cell death vs doxorubicin without protective agent (MDA-MB-231 cells [15]): no significant difference

COc1cccc2c1C(=O)c1c(O)c3c(c(O)c1C2=O)C[C@@](O)(C(=O)CO)C[C@@H]3O[C@H]1C[C@H](N)[C@H](O)[C@H](C)O1 [doxorubicin, reference compound]
decrease of ejection fraction (EF) (C57BL/16 mice; [25]): 19%
decrease of fractional shortening (FS) (C57BL/16 mice; [25]): 15%
TOPOIIβ mRNA expression (TOPOIIβ mRNA expression): significantly repressed
contraction ([3]; 1.25 μM doxorubicin, in the absence of myricetin): completely inhibited contraction
reduction in the number of total cells, as compared to mock-treated control ([6]; human, 72 h, 1.25 μM): 62.6%
expression of TOPOIIα (TOPOIIα expression; DOX alone, over time): slowly repressed
CC50 (MDA-MB-231 cells [21]): 0.53 µM
dysfunction in cardiomyocyte contraction ([10]; DOX (0.5 μM)): reduction in beating, duration, and peak height
average number of active electrodes ([19]; 1 μM doxorubicin in the absence of vitexin): about 2 active electrodes
decrease in the number of active electrodes ([19]; 1 μM doxorubicin, in the absence of vitexin, 24 hours after drug treatment): ~50%
decrease in the number of active electrodes, relative to time zero ([19]; 1 μM doxorubicin, in the absence of vitexin, 30 hours after drug treatment): ~95%
mitochondrial toxicity (decrease in TMRM-positive cells) vs mock-treated ([20]; 1 μM of doxorubicin): increase in mitochondrial toxicity

— patent US11786503B2, “Pharmaceutical compositions and methods for countering chemotherapy induced cardiotoxicity” (Auransa Inc., priority 2016, dated 2023)
